The values that follow come from publication PMC7618597, “Dual Nurr1/RXR agonism of valerenic acid and synthetic mimetics enables dimer-selective Nurr1 modulation” (ACS medicinal chemistry letters, 2025).

One assay deals with T1, Nurr1 LBD (Homo sapiens, UniProt P43354).
T1 construct: made in house
As to the kind of experiment: Isothermal titration calorimetry, recombinant Nurr1 LBD. Format: binding. To be noted: ITC. The protocol:
Isothermal titration calorimetry. ITC experiments for ligand binding to Nurr1 and RXR were conducted on an Affinity ITC instrument (TA Instruments, New Castle, DE) at 25 °C with a stirring rate of 75 rpm using recombinantly expressed ligand binding domain proteins as described previously5,6. The respective LBD protein (12–25 μM) in buffer (20 mM Tris pH 7.5, 100 mM NaCl, 5% glycerol) containing 2-4% DMSO was titrated with the test compounds (100-150 μM in the same buffer containing 2-4% DMSO) in 21–26 injections (1 × 1 μL and 20 × 4 to 25 × 4 μL) with an injection interval of 120 s. As control experiments, the test compounds were titrated to the buffer, and the buffer was titrated to the protein under otherwise identical conditions. The heat rates of the compound-Nurr1 LBD titrations were analyzed using NanoAnalyze software (TA Instruments, New Castle, DE) with an independent binding model.
(In general: Isothermal titration calorimetry measures the heat released or taken up as one component is titrated into another.)

The target in another assay is T2, Nurr1 homodimer (Homo sapiens, UniProt P43354).
T2 construct: Tb^3+-cryptate labeled and sGFP-labeled Nurr1 LBD proteins; FRET acceptor consisted of sGFP-Nurr1 LBD
Nature of the assay: Nurr1 LBD homodimerization assay (HTRF). Format: biochemical. To be noted: 30 μM, Tb3+-cryptate and sGFP labeled Nurr1 LBD. The method, then:
To determine the molecular response of the Nurr1:RXR heterodimer on dual agonist binding, we employed homogenous time-resolved fluorescence resonance energy transfer (HTRF) based assays with labeled Nurr1 and RXR LBD proteins. Tb^3+-cryptate as streptavidin conjugate served as FRET donor and was coupled to biotinylated proteins. sGFP fusion proteins of the receptors of interest were used as FRET acceptors. Ligand effects on dimer formation were determined by titrating the sGFP-labeled dimer partner with a fixed concentration of the Tb^3+-labeled counterpart. […] The same effect was also observable for the natural product 1 (Figure S3).
Nurr1 dimerization assays (HTRF). Modulation of Nurr1 LBD homodimerization and heterodimerization of the LDBs of Nurr1 and RXRα was investigated by HTRF as reported previously4. Nurr1 LBD or RXRα LBD proteins labeled with sGFP were titrated against a fixed concentration of Tb3+-cryptate as streptavidin conjugate (Tb-SA) (610SATLF, Revvity) coupled to biotinylated Nurr1 LBD protein in the presence of test compounds at 30 µM or absence of compound as a negative control (apo). Assay solutions were prepared in buffer containing 25 mM HEPES pH 7.5, 150 mM KF, 5% (m/v) glycerol, 5 mM DTT, 0.1% (m/v) CHAPS and 1%
DMSO. The FRET donor complex was formed from biotinylated Nurr1 LBD (final concentration 0.188 nM) and Tb-SA (0.375 nM) and was kept constant. For the homodimerization assay, the FRET acceptor consisted of sGFP-Nurr1 LBD, which was titrated from 0.5 µM, while free sGFP was added to keep the total GFP content stable at 0.5 µM. […] Samples were equilibrated at room temperature for 2 h and fluorescence intensities (FI) after excitation at 340 nm were recorded at 520 nm for sGFP acceptor fluorescence and at 620 for Tb-SA donor fluorescence on a SPARK plate reader (Tecan Group Ltd.). […]
Evaluation of Nurr1-regulated gene expression. […] RNA concentration and purity were assessed using a NanoDrop One UV-vis spectrophotometer (Thermo Fisher Scientific) at 260/280 nm. […]
Background: TR-FRET usually uses a lanthanide donor and a delayed reading to cut background.

In general, Kd refers to the equilibrium constant for the complex coming apart.

T1 sequence (P43354 360-595 limits assumed): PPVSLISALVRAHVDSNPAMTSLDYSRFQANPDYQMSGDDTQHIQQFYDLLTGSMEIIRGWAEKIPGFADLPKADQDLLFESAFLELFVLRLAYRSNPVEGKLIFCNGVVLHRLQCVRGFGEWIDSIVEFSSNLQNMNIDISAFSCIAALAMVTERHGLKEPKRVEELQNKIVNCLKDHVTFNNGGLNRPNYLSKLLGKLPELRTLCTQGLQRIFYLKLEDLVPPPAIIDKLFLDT
T2 sequence (P43354 360-595 limits assumed): as above

For `Cc1c(C)n(-c2ccc(CC(=O)O)cc2)c2ccc(F)cc12` [compound 3], the Kd on Nurr1 LBD came to 600 nM. Moreover, the Nurr1 homodimer formation result on Nurr1 homodimer was “markedly diminished”.
For the compound `Cc1c2c(n(-c3ccc(CC(=O)O)cc3)c1C)CCC(F)(F)C2` [compound 2], the Kd at Nurr1 LBD is 600 nM. The Nurr1 homodimer formation entry at Nurr1 homodimer is “markedly diminished”.
